# pKi: −log10 of the molar value. Like-named read-outs stand apart in the source and are kept apart here. Where a SMILES comes first, the peptide text is derived from it. Bridges are numbered along the chain shown (N, C = ends). [ ]: non-standard residue; d: D form. The star is where a group is joined. Palmitoyl(16-(5-tetrazolyl)) = O=C(CCCCCCCCCCCCCCCc1nnn[nH]1)*; X2 = O=C(CCCCCCCCCCCCCCCc1nnn[nH]1)NS(=O)(=O)CCCC(=O)*; Lys(CH2CO2H)2 = N[C@@H](CCCCN(CC(=O)O)CC(=O)O)C(=O)O; C16 diacid = O=C(O)CCCCCCCCCCCCCCC(=O)*; Hyp = O=C(O)[C@@H]1C[C@@H](O)CN1; NTA = O=C(O)CN(CC(=O)O)CC(=O)*; Nle = CCCC[C@H](N)C(=O)O; Dap = NC[C@H](N)C(=O)O; AEEA = NCCOCCOCC(=O)O
# What was measured:
# MC1 receptor = biological target: T1, MC1 receptor (Homo sapiens, UniProt Q01726); assay: Assay (IV) Melanocortin Receptor 1 (MC1) binding assay
# T1 construct: expressed in transfected cells
# T1 sequence (Q01726 whole entry): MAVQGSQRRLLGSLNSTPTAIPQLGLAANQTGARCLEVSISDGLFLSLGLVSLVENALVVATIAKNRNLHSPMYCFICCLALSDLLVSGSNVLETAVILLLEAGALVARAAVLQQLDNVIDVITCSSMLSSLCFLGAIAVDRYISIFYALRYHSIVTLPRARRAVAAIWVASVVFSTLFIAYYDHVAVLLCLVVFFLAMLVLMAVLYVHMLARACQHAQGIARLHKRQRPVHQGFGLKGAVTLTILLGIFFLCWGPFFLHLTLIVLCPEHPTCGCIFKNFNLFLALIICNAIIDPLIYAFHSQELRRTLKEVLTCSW
# Procedure: Assay (IV)—Melanocortin Receptor 1 (MC1) Binding Assay
# The MC1 receptor binding assay is performed on BHK cell membranes stably expressing the MC1 receptor. The assay is performed in a total volume of 250 NI: 25 μl of ^125NDP-α-MSH (22 pM in final concentration), 25 μl of test compound/control and 200 μl of cell membrane (25 μg/ml). Test compounds are dissolved in DMSO. Radioactively labeled ligand, membranes and test compounds are diluted in buffer: 25 mM HEPES, pH 7.4, 0.1 mM CaCl2, 1 mM MgSO4, 1 mM EDTA, 0.1% HSA and 0.005% Tween™ 20. Alternatively, HSA may be substituted with ovalbumin. The samples are incubated at 30° C. for 90 min. in Costar round-bottom microtiter plates. Incubation is terminated by filtration on a Packard harvester filtermate. Rapid filtration through Packard Unifilter-96 GF/B filters pre-treated with polyethylenimine (PerkinElmer 6005277). The filters are washed with ice-cold 0.9% NaCl 8-10 times. The plates is air dried at app. 55° C. for 30 min, and 50 μl Microscint 0 (Packard, cat. No. 6013616) is added to each well. The plates are counted in a Topcounter (1 min/well).
# (§1) The data are analysed by non-linear regression analysis of binding curves, using the Windows™ program GraphPad™ Prism (GraphPad Software, USA).
# [1] = Solubility data of compounds in water over the pH range; type: physicochemical
# human MC4 receptor = biological target: T2, human MC4 receptor (Homo sapiens, UniProt P32245); assay: Assay (V) Melanocortin Receptor 4 (MC4) binding assay; settings: 125NDP-α-MSH binding, BHK cell membranes; for Ki: Assay (V) MC4 [Ki] (nM); for pKi: read-out: Assay (V) MC4 [Ki]
# T2 construct: expressed in transfected cells
# T2 sequence (P32245 whole entry): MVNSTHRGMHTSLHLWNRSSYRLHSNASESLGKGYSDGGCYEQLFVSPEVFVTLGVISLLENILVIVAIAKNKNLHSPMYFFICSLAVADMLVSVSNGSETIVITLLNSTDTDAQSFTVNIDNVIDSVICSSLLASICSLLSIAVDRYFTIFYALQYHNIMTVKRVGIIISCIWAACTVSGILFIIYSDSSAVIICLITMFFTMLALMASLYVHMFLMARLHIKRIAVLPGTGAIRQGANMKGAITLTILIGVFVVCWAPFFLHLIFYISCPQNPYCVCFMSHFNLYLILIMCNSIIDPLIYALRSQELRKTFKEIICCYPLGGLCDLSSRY
# Procedure: Assay (V)—Melanocortin Receptor 4 (MC4) Binding Assay
# In vitro ^125NDP-α-MSH binding to recombinant BHK cells expressing human MC4 receptor (filtration assay).
# The assay is performed in 5 ml minisorb vials (Sarstedt No. 55.526) or in 96-well filterplates (Millipore MADVN 6550), and using BHK cells expressing the human MC4 receptor using BHK cells stably expressing the human MC4 receptor. The membranes were prepared from frozen or fresh cells that were homogenized in 20 mM HEPES pH 7.1, 5 mM MgCl2 and 1 mg/ml bacitracin and centrifuged at 15000 rpm at 4° C., 10 min in a Sorvall RC 5B plus, SS-34 rotor. The supernatant was discarded, and the pellets were re-suspended in buffer, homogenized and centrifuged two more times. The final pellets were resuspended in the buffer mentioned above, and the protein concentration was measured and adjusted with buffer to 14 to 17 mg/ml and the membrane preparation were kept at −80° C. until assay. The assay was run directly on a dilution of this cell membrane suspension, without any further preparation. The BHK cell membranes are kept at −80° C. until assay, and the assay is run directly on a dilution of this cell membrane suspension, without further preparation. The suspension is diluted to give maximally 10% specific binding, i.e. to approx. 50-100 fold dilution. The assay is performed in a total volume of 200 μl: 50 μl of cell suspension, 50 μl of ^125NDP-α-MSH (≈79 pM in final concentration), 50 μl of test compound and 50 μl binding buffer (pH 7) mixed and incubated for 2 h at 25° C. [binding buffer: 25 mM HEPES, pH 7.0, 1 mM CaCl2, 1 mM MgSO4, 1 mM EGTA, 0.02% Bacitracin, 0.005% Tween™ 20 and 0.1% HSA or, alternatively, 0.1% ovalbumin (Sigma; catalogue No. A-5503)]. Test compounds are dissolved in DMSO and diluted in binding buffer. Radiolabelled ligand and membranes are diluted in binding buffer. The incubation is stopped by dilution with 2×100 μl ice-cold 0.9% NaCl. The radioactivity retained on the filters is counted using a Cobra II auto gamma counter.
# as §1
# [2] = 125NDP-α-MSH binding, BHK cell membranes, read-out: Assay (IV) MC1 Ki
smiles,measurement,setting,value
"CCCC[C@H](NC(=O)[C@H](CCCCN(CC(=O)O)CC(=O)O)NC(=O)[C@H](Cc1c[nH]cn1)NC(=O)[C@H](CCC(N)=O)NC(=O)[C@H](CO)NC(=O)[C@H](CO)NC(=O)[C@H](CCC(N)=O)NC(=O)[C@@H](CO)NC(=O)CNC(=O)COCCOCCNC(=O)COCCOCCNC(=O)CCCCCCCCCCCCCCCc1nnn[nH]1)C(=O)N[C@H]1CCC(=O)NCCCC[C@@H](C(N)=O)NC(=O)[C@H](Cc2c[nH]c3ccccc23)NC(=O)[C@H](CCCNC(=N)N)NC(=O)[C@@H](Cc2ccccc2)NC(=O)[C@@H]2C[C@@H](O)CN2C1=O [Example 3, (2-{2-[2-(2-{2-[16-(Tetrazol-5-yl)hexadecanoylamino]ethoxy}ethoxy)acetylamino]ethoxy}ethoxy)acetyl-Gly-D-Ser-Gln-Ser-Ser-Gln-His-Lys(biscarboxymethyl)-Nle-c[Glu-Hyp-D-Phe-Arg-Trp-Lys]-NH2] ({Palmitoyl(16-(5-tetrazolyl))-AEEA-AEEA}-G[dS]QSSQH[Lys(CH2CO2H)2][Nle]E[Hyp][dF]RWK-NH2; lactam 10-15)",pKi,MC1 receptor,< 5.00
same,solubility at 3 days,"[1]; pH 2.95, pH 2.95, read-out: Conc (solubility in water)",435 µM
same,solubility at 3 days,"[1]; pH 3.88, pH 3.88, read-out: Conc (solubility in water)",570 µM
same,solubility at 3 days,"[1]; pH 4.82, pH 4.82, read-out: Conc (solubility in water)",429 µM
same,solubility at 3 days,"[1]; pH 4.84, pH 4.84, read-out: Conc (solubility in water)",324 µM
same,solubility at 3 days,"[1]; pH 5.18, pH 5.18, read-out: Conc (solubility in water)",75 µM
same,solubility at 3 days,"[1]; pH 6.1, pH 6.10, read-out: Conc (solubility in water)",39 µM
same,solubility at 3 days,"[1]; pH 6.95, pH 6.95, read-out: Conc (solubility in water)",87 µM
same,solubility at 3 days,"[1]; pH 7.15, pH 7.15, read-out: Conc (solubility in water)",190 µM
same,solubility at 3 days,"[1]; pH 7.24, pH 7.24, read-out: Conc (solubility in water)",256 µM
same,solubility at 3 days,"[1]; pH 7.29, pH 7.29, read-out: Conc (solubility in water)",316 µM
same,Ki,human MC4 receptor,1.95 nM
"CCCC[C@H](NC(=O)[C@H](CNC(=O)CN(CC(=O)O)CC(=O)O)NC(=O)[C@H](Cc1c[nH]cn1)NC(=O)[C@H](CCC(N)=O)NC(=O)[C@H](CO)NC(=O)[C@H](CCC(=O)O)NC(=O)COCCOCCNC(=O)CCCCCCCCCCCCCCCc1nnn[nH]1)C(=O)N[C@H]1CCC(=O)NCCCC[C@@H](C(N)=O)NC(=O)[C@H](Cc2c[nH]c3ccccc23)NC(=O)[C@H](CCCNC(=N)N)NC(=O)[C@@H](Cc2ccccc2)NC(=O)[C@@H]2C[C@@H](O)CN2C1=O [Example 17, (2-{2-[16-(Tetrazol-5-yl)hexadecanoylamino]ethoxy}ethoxy)acetyl-Glu-Ser-Gln-His-Dap(BCMA)-Nle-c[Glu-Hyp-D-Phe-Arg-Trp-Lys]-NH2] ({Palmitoyl(16-(5-tetrazolyl))-AEEA}-ESQH[Dap](NTA)[Nle]E[Hyp][dF]RWK-NH2; lactam 7-12)",pKi,MC1 receptor; [2],< 5.00
same,solubility at 3 days,"[1]; pH 3.32, pH 3.32, read-out: Conc (solubility in water)",34 µM
same,solubility at 3 days,"[1]; pH 3.76, pH 3.76, read-out: Conc (solubility in water)",25 µM
same,solubility at 3 days,"[1]; pH 4.31, pH 4.31, read-out: Conc (solubility in water)",20 µM
same,solubility at 3 days,"[1]; pH 4.56, pH 4.56, read-out: Conc (solubility in water)",20 µM
same,solubility at 3 days,"[1]; pH 4.94, pH 4.94, read-out: Conc (solubility in water)",23 µM
same,solubility at 3 days,"[1]; pH 5.55, pH 5.55, read-out: Conc (solubility in water)",39 µM
same,solubility at 3 days,"[1]; pH 6.04, pH 6.04, read-out: Conc (solubility in water)",127 µM
same,solubility at 3 days,"[1]; pH 6.34, pH 6.34, read-out: Conc (solubility in water)",226 µM
same,solubility at 3 days,"[1]; pH 6.89, pH 6.89, read-out: Conc (solubility in water)",303 µM
same,solubility at 3 days,"[1]; pH 7.62, pH 7.62, read-out: Conc (solubility in water)",351 µM
same,pKi,human MC4 receptor,8.27
"CCCC[C@H](NC(=O)[C@H](CCCCNC(=O)CN(CC(=O)O)CC(=O)O)NC(=O)[C@H](CO)NC(=O)[C@H](CCC(N)=O)NC(=O)[C@H](CO)NC(=O)CNC(=O)COCCOCCNC(=O)CCCCCCCCCCCCCCC(=O)O)C(=O)N[C@H]1CCC(=O)NCCCC[C@@H](C(N)=O)NC(=O)[C@H](Cc2c[nH]c3ccccc23)NC(=O)[C@H](CCCNC(=N)N)NC(=O)[C@@H](Cc2ccccc2)NC(=O)[C@@H]2C[C@@H](O)CN2C1=O [Example 21, {2-[2-(15-Carboxypentadecanoylamino)ethoxy]ethoxy}acetyl-Gly-Ser-Gln-Ser-Lys(BCMA)-Nle-c[Glu-Hyp-D-Phe-Arg-Trp-Lys]-NH2] ({C16 diacid-AEEA}-GSQSK(NTA)[Nle]E[Hyp][dF]RWK-NH2; lactam 7-12)",pKi,MC1 receptor; [2],< 5.00
same,solubility at 3 days,[1]; pH 4.04,26 µM
same,solubility at 3 days,[1]; pH 4.34,32 µM
same,solubility at 3 days,[1]; pH 4.74,40 µM
same,solubility at 3 days,[1]; pH 5.21,58 µM
same,solubility at 3 days,[1]; pH 5.67,103 µM
same,solubility at 3 days,[1]; pH 6.26,108 µM
same,solubility at 3 days,[1]; pH 6.29,106 µM
same,solubility at 3 days,[1]; pH 6.87,117 µM
same,solubility at 3 days,[1]; pH 7.6,116 µM
same,solubility at 3 days,[1]; pH 7.61,107 µM
same,pKi,human MC4 receptor,7.83
"CCCC[C@H](NC(=O)[C@H](CNC(=O)CN(CC(=O)O)CC(=O)O)NC(=O)[C@H](Cc1cnc[nH]1)NC(=O)[C@H](CCC(N)=O)NC(=O)[C@H](CO)NC(=O)CNC(=O)COCCOCCNC(=O)CCCCCCCCCCCCCCCc1nnn[nH]1)C(=O)N[C@H]1CCC(=O)NCCCC[C@@H](C(N)=O)NC(=O)[C@H](Cc2c[nH]c3ccccc23)NC(=O)[C@H](CCCN=C(N)N)NC(=O)[C@@H](Cc2ccccc2)NC(=O)[C@@H]2C[C@@H](O)CN2C1=O [Example 9, (2-{2-[16-(Tetrazol-5-yl)hexadecanoylamino]ethoxy}ethoxy)acetyl-Gly-Ser-Gln-His-Dap(BCMA)-Nle-c[Glu-Hyp-D-Phe-Arg-Trp-Lys]-NH2] ({Palmitoyl(16-(5-tetrazolyl))-AEEA}-GSQH[Dap](NTA)[Nle]E[Hyp][dF]RWK-NH2; lactam 7-12)",pKi,MC1 receptor,5.57
same,Ki,human MC4 receptor,0.58 nM
"CCCC[C@H](NC(=O)[C@H](CNC(=O)CN(CC(=O)O)CC(=O)O)NC(=O)[C@H](Cc1c[nH]cn1)NC(=O)[C@H](CCC(N)=O)NC(=O)[C@H](CO)NC(=O)CNC(=O)COCCOCCNC(=O)CCCS(=O)(=O)NC(=O)CCCCCCCCCCCCCCCc1nnn[nH]1)C(=O)N[C@H]1CCC(=O)NCCCC[C@@H](C(N)=O)NC(=O)[C@H](Cc2c[nH]c3ccccc23)NC(=O)[C@H](CCCNC(=N)N)NC(=O)[C@@H](Cc2ccccc2)NC(=O)[C@@H]2C[C@@H](O)CN2C1=O [Example 11, [2-(2-{4-[16-(Tetrazol-5-yl)hexadecanoylsulfamoyl]butanoylamino}ethoxy)ethoxy]acetyl-Gly-Ser-Gln-His-Dap(BCMA)-Nle-c[Glu-Hyp-D-Phe-Arg-Trp-Lys]-NH2] ({X2-AEEA}-GSQH[Dap](NTA)[Nle]E[Hyp][dF]RWK-NH2; lactam 7-12)",pKi,MC1 receptor,5.01
same,Ki,human MC4 receptor,3.25 nM
"CCCC[C@H](NC(=O)[C@H](CNC(=O)CN(CC(=O)O)CC(=O)O)NC(=O)[C@H](CO)NC(=O)[C@H](CCC(N)=O)NC(=O)[C@H](CO)NC(=O)CNC(=O)COCCOCCNC(=O)CCCCCCCCCCCCCCCc1nnn[nH]1)C(=O)N[C@H]1CCC(=O)NCCCC[C@@H](C(N)=O)NC(=O)[C@H](Cc2c[nH]c3ccccc23)NC(=O)[C@H](CCCNC(=N)N)NC(=O)[C@@H](Cc2ccccc2)NC(=O)[C@@H]2C[C@@H](O)CN2C1=O [Example 4, (2-{2-[16-(Tetrazol-5-yl)hexadecanoylamino]ethoxy}ethoxy)acetyl-Gly-Ser-Gln-Ser-Dap(BCMA)-Nle-c[Glu-Hyp-D-Phe-Arg-Trp-Lys]-NH2] ({Palmitoyl(16-(5-tetrazolyl))-AEEA}-GSQS[Dap](NTA)[Nle]E[Hyp][dF]RWK-NH2; lactam 7-12)",pKi,MC1 receptor,5.32
same,Ki,human MC4 receptor,5.67 nM
